Measured values taken from the NIST ThermoML archive (doi:10.1007/s10765-005-5567-5).
Numbers after ± are expanded uncertainties.

Test: mn = molality of the nth substance listed, in mol/kg
Settings: Liquid; for thermal conductivity: Coaxial cylinder method; for viscosity: Capillary tube (Ostwald / Ubbelohde) method

O=S(=O)([O-])[O-].[K+].[K+] [potassium sulfate] + O
Settings	thermal conductivity [W/m/K]	viscosity [mPa·s]
298 K, 100 kPa, m1 = 0.499	0.602 ± 0.017	–
298 K, 10000 kPa, m1 = 0.499	0.607 ± 0.017	–
298 K, 30000 kPa, m1 = 0.499	0.616 ± 0.017	–
298.15 K, 0.1 kPa, m1 = 0.0658	–	0.9039 ± 0.029
298.15 K, 0.1 kPa, m1 = 0.2055	–	0.931 ± 0.03
298.15 K, 0.1 kPa, m1 = 0.305	–	0.9616 ± 0.031
298.15 K, 0.1 kPa, m1 = 0.407	–	0.9825 ± 0.031
298.15 K, 10 kPa, m1 = 0.0658	–	0.9023 ± 0.029
298.15 K, 10 kPa, m1 = 0.2055	–	0.9297 ± 0.03
298.15 K, 10 kPa, m1 = 0.305	–	0.9618 ± 0.031
298.15 K, 10 kPa, m1 = 0.407	–	0.9823 ± 0.031
298.15 K, 20 kPa, m1 = 0.0658	–	0.904 ± 0.029
298.15 K, 20 kPa, m1 = 0.2055	–	0.931 ± 0.03
298.15 K, 20 kPa, m1 = 0.305	–	0.9615 ± 0.031
298.15 K, 20 kPa, m1 = 0.407	–	0.9826 ± 0.031
298.15 K, 30 kPa, m1 = 0.0658	–	0.9053 ± 0.029
298.15 K, 30 kPa, m1 = 0.2055	–	0.9319 ± 0.03
298.15 K, 30 kPa, m1 = 0.305	–	0.964 ± 0.031
298.15 K, 30 kPa, m1 = 0.407	–	0.983 ± 0.031
298.4 K, 100 kPa, m1 = 0.239	0.605 ± 0.017	–
298.4 K, 10000 kPa, m1 = 0.239	0.61 ± 0.017	–
298.4 K, 30000 kPa, m1 = 0.239	0.62 ± 0.017	–
311.65 K, 0.1 kPa, m1 = 0.2055	–	0.7107 ± 0.023
311.65 K, 10 kPa, m1 = 0.2055	–	0.7122 ± 0.023
311.65 K, 20 kPa, m1 = 0.2055	–	0.7133 ± 0.023
311.65 K, 30 kPa, m1 = 0.2055	–	0.7151 ± 0.023
312.25 K, 0.1 kPa, m1 = 0.407	–	0.7386 ± 0.024
312.25 K, 10 kPa, m1 = 0.407	–	0.7414 ± 0.024
312.25 K, 20 kPa, m1 = 0.407	–	0.7439 ± 0.024
312.25 K, 30 kPa, m1 = 0.407	–	0.7452 ± 0.024
312.55 K, 0.1 kPa, m1 = 0.305	–	0.7172 ± 0.023
312.55 K, 10 kPa, m1 = 0.305	–	0.7194 ± 0.024
312.55 K, 20 kPa, m1 = 0.305	–	0.7207 ± 0.024
312.55 K, 30 kPa, m1 = 0.305	–	0.7227 ± 0.024
313 K, 100 kPa, m1 = 0.239	0.626 ± 0.018	–
313 K, 10000 kPa, m1 = 0.239	0.631 ± 0.018	–
313 K, 30000 kPa, m1 = 0.239	0.641 ± 0.018	–
313.1 K, 100 kPa, m1 = 0.782	0.618 ± 0.017	–
313.1 K, 10000 kPa, m1 = 0.782	0.623 ± 0.018	–
313.1 K, 30000 kPa, m1 = 0.782	0.632 ± 0.018	–
313.55 K, 0.1 kPa, m1 = 0.0658	–	0.6609 ± 0.022
313.55 K, 10 kPa, m1 = 0.0658	–	0.6613 ± 0.022
313.55 K, 20 kPa, m1 = 0.0658	–	0.665 ± 0.022
313.55 K, 30 kPa, m1 = 0.0658	–	0.667 ± 0.022
313.6 K, 100 kPa, m1 = 0.499	0.622 ± 0.017	–
313.6 K, 10000 kPa, m1 = 0.499	0.627 ± 0.018	–
313.6 K, 30000 kPa, m1 = 0.499	0.637 ± 0.018	–
323.15 K, 0.1 kPa, m1 = 0.2055	–	0.5819 ± 0.018
323.15 K, 0.1 kPa, m1 = 0.305	–	0.5972 ± 0.019
323.15 K, 10 kPa, m1 = 0.2055	–	0.5837 ± 0.018
323.15 K, 10 kPa, m1 = 0.305	–	0.5991 ± 0.019
323.15 K, 20 kPa, m1 = 0.2055	–	0.5858 ± 0.018
323.15 K, 20 kPa, m1 = 0.305	–	0.6019 ± 0.019
323.15 K, 30 kPa, m1 = 0.2055	–	0.5885 ± 0.018
323.15 K, 30 kPa, m1 = 0.305	–	0.6045 ± 0.019
323.25 K, 0.1 kPa, m1 = 0.0658	–	0.5568 ± 0.017
323.25 K, 10 kPa, m1 = 0.0658	–	0.5586 ± 0.017
323.25 K, 20 kPa, m1 = 0.0658	–	0.5601 ± 0.018
323.25 K, 30 kPa, m1 = 0.0658	–	0.5617 ± 0.018
323.35 K, 0.1 kPa, m1 = 0.407	–	0.6109 ± 0.019
323.35 K, 10 kPa, m1 = 0.407	–	0.613 ± 0.019
323.35 K, 20 kPa, m1 = 0.407	–	0.6159 ± 0.019
323.35 K, 30 kPa, m1 = 0.407	–	0.618 ± 0.019
333.3 K, 100 kPa, m1 = 0.782	0.64 ± 0.018	–
333.3 K, 10000 kPa, m1 = 0.782	0.645 ± 0.018	–
333.3 K, 30000 kPa, m1 = 0.782	0.655 ± 0.018	–
333.6 K, 100 kPa, m1 = 0.239	0.649 ± 0.018	–
333.6 K, 10000 kPa, m1 = 0.239	0.654 ± 0.018	–
333.6 K, 30000 kPa, m1 = 0.239	0.664 ± 0.019	–
333.7 K, 100 kPa, m1 = 0.499	0.645 ± 0.018	–
333.7 K, 10000 kPa, m1 = 0.499	0.65 ± 0.018	–
333.7 K, 30000 kPa, m1 = 0.499	0.66 ± 0.019	–
348.15 K, 0.1 kPa, m1 = 0.407	–	0.4271 ± 0.014
348.15 K, 10 kPa, m1 = 0.407	–	0.4316 ± 0.014
348.15 K, 20 kPa, m1 = 0.407	–	0.4354 ± 0.014
348.15 K, 30 kPa, m1 = 0.407	–	0.438 ± 0.014
348.25 K, 0.1 kPa, m1 = 0.305	–	0.4147 ± 0.013
348.25 K, 10 kPa, m1 = 0.305	–	0.4182 ± 0.013
348.25 K, 20 kPa, m1 = 0.305	–	0.4217 ± 0.013
348.25 K, 30 kPa, m1 = 0.305	–	0.4248 ± 0.013
348.45 K, 0.1 kPa, m1 = 0.0658	–	0.3842 ± 0.012
348.45 K, 10 kPa, m1 = 0.0658	–	0.3869 ± 0.012
348.45 K, 20 kPa, m1 = 0.0658	–	0.3912 ± 0.012
348.45 K, 30 kPa, m1 = 0.0658	–	0.3963 ± 0.012
348.95 K, 0.1 kPa, m1 = 0.2055	–	0.3988 ± 0.013
348.95 K, 10 kPa, m1 = 0.2055	–	0.402 ± 0.013
348.95 K, 20 kPa, m1 = 0.2055	–	0.4048 ± 0.013
348.95 K, 30 kPa, m1 = 0.2055	–	0.4076 ± 0.013
352.9 K, 100 kPa, m1 = 0.499	0.66 ± 0.019	–
352.9 K, 100 kPa, m1 = 0.782	0.654 ± 0.018	–
352.9 K, 10000 kPa, m1 = 0.499	0.665 ± 0.019	–
352.9 K, 10000 kPa, m1 = 0.782	0.659 ± 0.019	–
352.9 K, 30000 kPa, m1 = 0.499	0.675 ± 0.019	–
352.9 K, 30000 kPa, m1 = 0.782	0.67 ± 0.019	–
353.3 K, 100 kPa, m1 = 0.239	0.665 ± 0.019	–
353.3 K, 10000 kPa, m1 = 0.239	0.67 ± 0.019	–
353.3 K, 30000 kPa, m1 = 0.239	0.679 ± 0.019	–
363 K, 100 kPa, m1 = 0.499	0.666 ± 0.019	–
363 K, 10000 kPa, m1 = 0.499	0.671 ± 0.019	–
363 K, 30000 kPa, m1 = 0.499	0.68 ± 0.019	–
363.4 K, 100 kPa, m1 = 0.239	0.67 ± 0.019	–
363.4 K, 100 kPa, m1 = 0.782	0.66 ± 0.019	–
363.4 K, 10000 kPa, m1 = 0.239	0.675 ± 0.019	–
363.4 K, 10000 kPa, m1 = 0.782	0.665 ± 0.019	–
363.4 K, 30000 kPa, m1 = 0.239	0.685 ± 0.019	–
363.4 K, 30000 kPa, m1 = 0.782	0.675 ± 0.019	–
365.45 K, 10 kPa, m1 = 0.2055	–	0.3303 ± 0.01
365.45 K, 20 kPa, m1 = 0.2055	–	0.3339 ± 0.01
365.45 K, 30 kPa, m1 = 0.2055	–	0.3363 ± 0.01
365.95 K, 10 kPa, m1 = 0.305	–	0.3396 ± 0.011
365.95 K, 20 kPa, m1 = 0.305	–	0.3421 ± 0.011
365.95 K, 30 kPa, m1 = 0.305	–	0.346 ± 0.011
372.55 K, 10 kPa, m1 = 0.407	–	0.3265 ± 0.01
372.55 K, 20 kPa, m1 = 0.407	–	0.33 ± 0.01
372.55 K, 30 kPa, m1 = 0.407	–	0.3329 ± 0.01
376.65 K, 10 kPa, m1 = 0.0658	–	0.2805 ± 0.0088
376.65 K, 20 kPa, m1 = 0.0658	–	0.2846 ± 0.0089
376.65 K, 30 kPa, m1 = 0.0658	–	0.2884 ± 0.009
393.1 K, 10000 kPa, m1 = 0.499	0.679 ± 0.019	–
393.1 K, 10000 kPa, m1 = 0.782	0.672 ± 0.019	–
393.1 K, 30000 kPa, m1 = 0.499	0.69 ± 0.019	–
393.1 K, 30000 kPa, m1 = 0.782	0.685 ± 0.019	–
393.5 K, 10000 kPa, m1 = 0.239	0.684 ± 0.019	–
393.5 K, 30000 kPa, m1 = 0.239	0.695 ± 0.019	–
396.35 K, 10 kPa, m1 = 0.407	–	0.2605 ± 0.0081
396.35 K, 20 kPa, m1 = 0.407	–	0.2628 ± 0.0082
396.35 K, 30 kPa, m1 = 0.407	–	0.2667 ± 0.0083
396.65 K, 10 kPa, m1 = 0.2055	–	0.2435 ± 0.0076
396.65 K, 20 kPa, m1 = 0.2055	–	0.2464 ± 0.0077
396.65 K, 30 kPa, m1 = 0.2055	–	0.2492 ± 0.0078
397.25 K, 10 kPa, m1 = 0.305	–	0.2503 ± 0.0078
